Laboratory results: PubChem BioAssay AID2060600 (Molecular Pharmacology Branch, DTP, NCI, 2025)
pIC50: −log10 of the molar value.

Test system: 996289-038-R-J1-PDC complex spheroid viability
Test: Anticancer human tumor 996289-038-R-J1-PDC patient-derived colon adenocarcinoma cell line growth inhibition [CLK]
Settings: for pIC50: curve of first compound; for viability, T/C: stronger effect = lower value
Source text: A high-throughput screen of multi-cell type tumor spheroids was designed to identify active combinations of […] and targeted small molecules. Complex spheroids include a stromal component modeled by human endothelial cells (HUVEC) and fibroblasts modeled by human mesenchymal stem cells (MSCs). The concentration ranges selected for each drug and investigational agent were based upon clinically achievable concentrations if the clinical Cmax of the agent was known.
Compounds. The drugs and investigational agents: cirtuvivint (SM08502; NSC835563), CC-671 (NSC850746), vemurafenib (NSC761431), tapotoclax (NSC804041), sotorasib (NSC818433), adagrasib (NSC831453), MRTX-1133 (NSC836407), BAY2416964 (NSC825713), copanlisib (NSC816437), inavolisib (NSC800729), abemaciclib (NSC768073), osimertinib (NSC779217), entinostat (NSC756642), eltanexor (KPT-8602, NSC794443), venetoclax (NSC766270), ceralasertib (NSC777638), bortezomib (NSC756655), olaparib (NSC753686), talazoparib (NSC767125), alisertib (NSC759677), peposertib (NSC802822), gemcitabine (NSC613327), 5-fluorouracil (NSC19893), SN-38 (NSC673596), oxaliplatin (NSC266046), paclitaxel (NSC125973), and doxorubicin (NSC123127), were obtained from the National Cancer Institute (NCI) Developmental Therapeutics Program Chemical Repository. The FDA-approved anticancer drug set is available from the Developmental Therapeutics Program at https://dtp.cancer.gov/organization/dscb/obtaining/available plates.htm. […] The stock solutions were prepared in dimethyl sulfoxide (DMSO, Sigma-Aldrich, St. Louis, MO, cat. D2650), except for the platinum complexes which were prepared in saline (Quality Biological, Gaithersburg, MD, cat. 114-055-101), at 800-fold the tested concentration and stored at -70 degrees C prior to their use. All drugs and investigational agents were tested over a range starting from a high concentration at or near the clinical Cmax and decreasing in half-log increments. If the clinical Cmax for an agent had not been determined, the highest concentration tested was 10 microM.
Cell Culture. All cells were maintained in an incubator at 37 degrees C and 5% CO2 with 95% humidity. The PDC lines were cultured according to standard operating procedures established by the NCI PDMR. Briefly, all PDCs were thawed and cultured in Matrigel-coated flasks prepared with a working solution of 1X Ham's F-12 nutrient mix, without supplementation (Invitrogen, Waltham, MA, cat. 11765054), 100 U/mL penicillin-streptomycin (Invitrogen, cat. 15140122), and 2.5% Matrigel (Corning Inc., Corning, NY, cat. 354248) for the first three passages. The 947758-054-R-J2-PDC line was cultured in 6B/Colon 1A media, which includes advanced DMEM/F-12 (Thermo Fisher Scientific, cat. 12634028), 10 mM HEPES (Thermo Fisher Scientific, cat. 15630080), 1X GlutaMAX supplement (Thermo Fisher Scientific, cat. 35050061), 0.1 mg/mL primocin (InvivoGen, cat. ant-pm-2), 10% defined fetal bovine serum, heat inactivated (HyClone Laboratories Inc., cat. SH30070.03HI), 1.25 mM N-Acetyl-L-cysteine (Sigma-Aldrich, cat. A9165), 10 mM nicotinamide (Sigma-Aldrich, cat. N0636), 1X B-27 supplement (Thermo Fisher Scientific, cat. 17504044), 1X N-2 supplement (Thermo Fisher Scientific, cat. 17502048), and 10 microM Y-27632 dihydrochloride (Tocris Bioscience, cat. 1254). The 876862-298-R-J1-PDC was cultured in 6E media, which includes all 6B/Colon 1A media components plus 50% L-WRN conditioned media (ATCC, cat. CRL-3276), 50 ng/mL recombinant human EGF recombinant protein (hEGF; Thermo Fisher Scientific, cat. PHG0311), 10 ng/mL recombinant human fibroblast growth factor 10 (hGFG-10; PeproTech, cat. 100-26), 1 ng/mL recombinant human fibroblast growth factor 2 (hFGF-2; PeproTech, cat. 100-18B), and 1 µM prostaglandin E2 (PGE2; Tocris, cat. 2296). The 227483-062-R1-J1-PDC line was cultured in Panc media, containing all 6E components except hFGF-2, with the addition of 500 nM SB-431542 (Selleckchem, cat. S1067) and 10 nM gastrin (Tocris, cat. 3006). […]

[1] = second compound 0.0316 µM, first compound 0.0316 µM
[2] = second compound 0.0316 µM, first compound 0.1 µM
[3] = second compound 0.0316 µM, first compound 0.316 µM
[4] = second compound 0.0316 µM, first compound 1 µM
[5] = second compound 0.1 µM, first compound 0.0316 µM
[6] = second compound 0.1 µM, first compound 0.1 µM
[7] = second compound 0.1 µM, first compound 0.316 µM
[8] = second compound 0.1 µM, first compound 1 µM
[9] = second compound 0.316 µM, first compound 0.0316 µM
[10] = second compound 0.316 µM, first compound 0.1 µM
[11] = second compound 0.316 µM, first compound 0.316 µM
[12] = second compound 0.316 µM, first compound 1 µM
[13] = second compound 1 µM, first compound 0.0316 µM
[14] = second compound 1 µM, first compound 0.1 µM
[15] = second compound 1 µM, first compound 0.316 µM
[16] = second compound 1 µM, first compound 1 µM
[17] = second compound 3.16 µM, first compound 0.0316 µM
[18] = second compound 3.16 µM, first compound 0.1 µM
[19] = second compound 3.16 µM, first compound 0.316 µM
[20] = second compound 3.16 µM, first compound 1 µM
[21] = second compound 10 µM, first compound 0.0316 µM
[22] = second compound 10 µM, first compound 0.1 µM
[23] = second compound 10 µM, first compound 0.316 µM
[24] = second compound 10 µM, first compound 1 µM
[25] = second compound 0.0316 µM, first compound 0.00316 µM
[26] = second compound 0.0316 µM, first compound 0.01 µM
[27] = second compound 0.1 µM, first compound 0.00316 µM
[28] = second compound 0.1 µM, first compound 0.01 µM
[29] = second compound 0.316 µM, first compound 0.00316 µM
[30] = second compound 0.316 µM, first compound 0.01 µM
[31] = second compound 1 µM, first compound 0.00316 µM
[32] = second compound 1 µM, first compound 0.01 µM
[33] = second compound 3.16 µM, first compound 0.00316 µM
[34] = second compound 3.16 µM, first compound 0.01 µM
[35] = second compound 10 µM, first compound 0.00316 µM
[36] = second compound 10 µM, first compound 0.01 µM
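Further: spheroids exposed to the agents for 7 days before readout.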

SMILES: CC(Nc1ccc2c(c1)OCCn1cc(N3C(=O)OCC3C(F)F)nc1-2)C(N)=O (stereo unspecified) + CN1CCN(c2cc(C(=O)Nc3cc4cc(-c5cnn(C)c5)ccc4cn3)ccn2)CC1
- pIC50 (second compound 0.0316 µM): 5.50
- pIC50 (second compound 0.1 µM): 5.96
- pIC50 (second compound 0.316 µM): 6.80
- pIC50 (second compound 1 µM): > 7.50
- pIC50 (second compound 3.16 µM): > 7.50
- pIC50 (second compound 10 µM): > 7.50
- viability, T/C [1]: 88.1%
- viability, T/C [2]: 84.9%
- viability, T/C [3]: 71.8%
- viability, T/C [4]: 60.5%
- viability, T/C (second compound 0.0316 µM, first compound 3.16 µM): 52.2%
- viability, T/C (second compound 0.0316 µM, first compound 10 µM): 37.2%
- viability, T/C [5]: 91.5%
- viability, T/C [6]: 77.3%
- viability, T/C [7]: 62.1%
- viability, T/C [8]: 50.6%
- viability, T/C (second compound 0.1 µM, first compound 3.16 µM): 41.6%
- viability, T/C (second compound 0.1 µM, first compound 10 µM): 31.2%
- viability, T/C [9]: 62%
- viability, T/C [10]: 50.9%
- viability, T/C [11]: 46%
- viability, T/C [12]: 35.6%
- viability, T/C (second compound 0.316 µM, first compound 3.16 µM): 35.9%
- viability, T/C (second compound 0.316 µM, first compound 10 µM): 21.9%
- viability, T/C [13]: 2.6%
- viability, T/C [14]: 2.53%
- viability, T/C [15]: 2.23%
- viability, T/C [16]: 1.58%
- viability, T/C (second compound 1 µM, first compound 3.16 µM): 1.47%
- viability, T/C (second compound 1 µM, first compound 10 µM): 1.4%
- viability, T/C [17]: 3.59%
- viability, T/C [18]: 0.97%
- viability, T/C [19]: 1.63%
- viability, T/C [20]: 1.51%
- viability, T/C (second compound 3.16 µM, first compound 3.16 µM): 1.33%
- viability, T/C (second compound 3.16 µM, first compound 10 µM): 1.96%
- viability, T/C [21]: 1.51%
- viability, T/C [22]: 0.78%
- viability, T/C [23]: 1.23%
- viability, T/C [24]: 0.65%
- viability, T/C (second compound 10 µM, first compound 3.16 µM): 0.6%
- viability, T/C (second compound 10 µM, first compound 10 µM): 0.47%

SMILES: CCN1CCN(Cc2ccc(Nc3ncc(F)c(-c4cc(F)c5nc(C)n(C(C)C)c5c4)n3)nc2)CC1 + CN1CCN(c2cc(C(=O)Nc3cc4cc(-c5cnn(C)c5)ccc4cn3)ccn2)CC1
- pIC50 (second compound 0.0316 µM): < 6.00
- pIC50 (second compound 0.1 µM): < 6.00
- pIC50 (second compound 0.316 µM): 6.12
- pIC50 (second compound 1 µM): > 8.50
- pIC50 (second compound 3.16 µM): > 8.50
- pIC50 (second compound 10 µM): > 8.50
- viability, T/C [25]: 95.8%
- viability, T/C [26]: 97.3%
- viability, T/C [1]: 82.6%
- viability, T/C [2]: 82.5%
- viability, T/C [3]: 79.7%
- viability, T/C [4]: 76.8%
- viability, T/C [27]: 101%
- viability, T/C [28]: 85.7%
- viability, T/C [5]: 86.4%
- viability, T/C [6]: 81.4%
- viability, T/C [7]: 68.8%
- viability, T/C [8]: 71%
- viability, T/C [29]: 64.8%
- viability, T/C [30]: 62.5%
- viability, T/C [9]: 58.7%
- viability, T/C [10]: 53.4%
- viability, T/C [11]: 51.3%
- viability, T/C [12]: 50.8%
- viability, T/C [31]: 6.12%
- viability, T/C [32]: 6.14%
- viability, T/C [13]: 7.95%
- viability, T/C [14]: 8.35%
- viability, T/C [15]: 10.1%
- viability, T/C [16]: 2.91%
- viability, T/C [33]: 1.14%
- viability, T/C [34]: 1.05%
- viability, T/C [17]: 0.74%
- viability, T/C [18]: 1.08%
- viability, T/C [19]: 1.2%
- viability, T/C [20]: 2.28%
- viability, T/C [35]: 0.58%
- viability, T/C [36]: 0.55%
- viability, T/C [21]: 0.57%
- viability, T/C [22]: 0.88%
- viability, T/C [23]: 0.37%
- viability, T/C [24]: 0.53%

SMILES: COc1c(OCCCN2CCOCC2)ccc2c3n(c(=NC(=O)c4cnc(N)nc4)nc12)CCN3 + CN1CCN(c2cc(C(=O)Nc3cc4cc(-c5cnn(C)c5)ccc4cn3)ccn2)CC1
- pIC50 (second compound 0.0316 µM): 7.13
- pIC50 (second compound 0.1 µM): 7.42
- pIC50 (second compound 0.316 µM): 8.01
- pIC50 (second compound 1 µM): > 8.50
- pIC50 (second compound 3.16 µM): > 8.50
- pIC50 (second compound 10 µM): > 8.50
- viability, T/C [25]: 87.7%
- viability, T/C [26]: 88.8%
- viability, T/C [1]: 64.5%
- viability, T/C [2]: 43.9%
- viability, T/C [3]: 30.1%
- viability, T/C [4]: 18.7%
- viability, T/C [27]: 86%
- viability, T/C [28]: 66.7%
- viability, T/C [5]: 56.4%
- viability, T/C [6]: 33.5%
- viability, T/C [7]: 24.8%
- viability, T/C [8]: 13.5%
- viability, T/C [29]: 56.9%
- viability, T/C [30]: 50%
- viability, T/C [9]: 36.3%
- viability, T/C [10]: 21%
- viability, T/C [11]: 12.7%
- viability, T/C [12]: 8.17%
- viability, T/C [31]: 2.97%
- viability, T/C [32]: 3.06%
- viability, T/C [13]: 3.03%
- viability, T/C [14]: 1.3%
- viability, T/C [15]: 1.59%
- viability, T/C [16]: 3.21%
- viability, T/C [33]: 0.97%
- viability, T/C [34]: 0.95%
- viability, T/C [17]: 2.68%
- viability, T/C [18]: 0.71%
- viability, T/C [19]: 2.1%
- viability, T/C [20]: 1.27%
- viability, T/C [35]: 1.28%
- viability, T/C [36]: 0.97%
- viability, T/C [21]: 0.74%
- viability, T/C [22]: 0.86%
- viability, T/C [23]: 0.56%
- viability, T/C [24]: 0.61%
